Laboratory results from PubChem BioAssay (NCI).
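1) Cells in 96-well plates. 2) Compound, 48 h, 5 concentrations. 3) Linear interpolation between surrounding doses. 4) Unreached endpoint = highest concentration. Here, GI50 denotes the concentration required for 50% inhibition of growth. TGI is the concentration that stops growth completely.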

System: 786-0 renal
Assay: growth of human tumour cells (NCI), 48 h

Q: How did the TGI turn out when `S=c1sc2c(n1-c1ccccc1)NC=NC2S` (stereo not given) was run?
A: > 100 µM

Q: For `Cc1ccc(/C=C/C(=O)CCN(C)C)cc1`, which TGI is on record?
A: 32.6 µM

Q: How did the TGI turn out when `N#C/C(=C\c1cccc(Cl)c1Cl)c1ccccc1` was run?
A: 65.2 µM

Q: How did the TGI turn out when `Cc1cccc(C)c1NC(=O)CCCC(=O)C1/C(=N/NC(=O)CC#N)CCC/C1=N\NC(=O)CC#N` (stereo not given) was run?
A: > 100 µM

Q: For `CN(C)CC1CC/C(=C\c2ccc(O)cc2)C1=O` (stereo not given), which TGI is on record?
A: 4.91 µM

Q: Which GI50 does the source give for `O=c1ccc2ccccc2cc1[O-].O=c1ccc2ccccc2cc1[O-].[O]=[U+2]=[O]` here?
A: 15 µM

Q: And the TGI?
A: 40.8 µM

Q: For `COC(=O)C(CCCN1C(=O)c2ccccc2C1=O)C(=O)OC`, which TGI is on record?
A: > 100 µM

Q: `COc1nc(NC2OC(COC(C)=O)C(OC(C)=O)C(OC(C)=O)C2OC(C)=O)c2c(OC(C)=O)cc(=O)oc2n1` (stereo not given) was tested. Which TGI did it give?
A: > 100 µM

Q: For `CC(C)(C)c1cc2c(O)c3cccc4c(=O)c5cccc6c5-c(c34)c2c(c1)c6=O`, which TGI is on record?
A: > 100 µM

Q: With `C=C(C)CCOC(c1ccccc1)(c1ccccc1)c1ccccc1` as the compound, how does the TGI read?
A: > 100 µM

Q: Which TGI does the source give for `COc1ccc(C)cc1-c1cc(Sc2ccccc2)c(-c2cc(C)ccc2OC)o1` here?
A: > 31.6 µM

Q: For `CC(=O)O/N=C(/C)c1ccccc1O`, which TGI is on record?
A: > 100 µM

Q: Which TGI does the source give for `CC(=O)OCCOCNC(=S)N/N=C(\C)c1cnccn1` here?
A: > 100 µM

Q: `O=C(Nc1ccccc1-c1nn(C(=S)Nc2ccccc2)c(=S)n(C(=S)Nc2ccccc2)c1=O)C(F)(F)F` was tested. Which TGI did it give?
A: > 100 µM

Q: How did the TGI turn out when `CN(C)CCn1c2c3ccccc3ccc2c2oc(=O)c3ccccc3c21` was run?
A: 7.14 µM

System: A549 NSCLC
Assay: growth of human tumour cells (NCI), 48 h

Q: `S=c1sc2c(n1-c1ccccc1)NC=NC2S` (stereo not given) was tested. Which TGI did it give?
A: > 100 µM

Q: Which TGI does the source give for `Cc1ccc(/C=C/C(=O)CCN(C)C)cc1` here?
A: 38.4 µM

Q: With `N#C/C(=C\c1cccc(Cl)c1Cl)c1ccccc1` as the compound, how does the TGI read?
A: > 100 µM

Q: For `Cc1cccc(C)c1NC(=O)CCCC(=O)C1/C(=N/NC(=O)CC#N)CCC/C1=N\NC(=O)CC#N` (stereo not given), which TGI is on record?
A: > 100 µM

Q: How did the TGI turn out when `CN(C)CC1CC/C(=C\c2ccc(O)cc2)C1=O` (stereo not given) was run?
A: 40.9 µM

Q: With `O=c1ccc2ccccc2cc1[O-].O=c1ccc2ccccc2cc1[O-].[O]=[U+2]=[O]` as the compound, how does the GI50 read?
A: 4.78 µM

Q: What about the TGI of the same compound?
A: 56 µM

Q: Which TGI does the source give for `COC(=O)C(CCCN1C(=O)c2ccccc2C1=O)C(=O)OC` here?
A: > 100 µM

Q: How did the TGI turn out when `COc1nc(NC2OC(COC(C)=O)C(OC(C)=O)C(OC(C)=O)C2OC(C)=O)c2c(OC(C)=O)cc(=O)oc2n1` (stereo not given) was run?
A: > 100 µM

Q: Which TGI does the source give for `CC(C)(C)c1cc2c(O)c3cccc4c(=O)c5cccc6c5-c(c34)c2c(c1)c6=O` here?
A: > 100 µM

Q: Which TGI does the source give for `C=C(C)CCOC(c1ccccc1)(c1ccccc1)c1ccccc1` here?
A: > 100 µM

Q: How did the TGI turn out when `COc1ccc(C)cc1-c1cc(Sc2ccccc2)c(-c2cc(C)ccc2OC)o1` was run?
A: > 31.6 µM

Q: Which TGI does the source give for `CC(=O)O/N=C(/C)c1ccccc1O` here?
A: > 100 µM

Q: How did the TGI turn out when `CC(=O)OCCOCNC(=S)N/N=C(\C)c1cnccn1` was run?
A: > 100 µM

Q: With `O=C(Nc1ccccc1-c1nn(C(=S)Nc2ccccc2)c(=S)n(C(=S)Nc2ccccc2)c1=O)C(F)(F)F` as the compound, how does the TGI read?
A: > 100 µM

Q: For `CN(C)CCn1c2c3ccccc3ccc2c2oc(=O)c3ccccc3c21`, which TGI is on record?
A: 15.3 µM

System: DLD-1 colon
Assay: growth of human tumour cells (NCI), 48 h

Q: With `S=c1sc2c(n1-c1ccccc1)NC=NC2S` (stereo not given) as the compound, how does the TGI read?
A: > 100 µM

Q: `Cc1ccc(/C=C/C(=O)CCN(C)C)cc1` was tested. Which TGI did it give?
A: 33.7 µM

Q: For `N#C/C(=C\c1cccc(Cl)c1Cl)c1ccccc1`, which TGI is on record?
A: > 100 µM

Q: For `Cc1cccc(C)c1NC(=O)CCCC(=O)C1/C(=N/NC(=O)CC#N)CCC/C1=N\NC(=O)CC#N` (stereo not given), which TGI is on record?
A: > 100 µM

Q: With `CN(C)CC1CC/C(=C\c2ccc(O)cc2)C1=O` (stereo not given) as the compound, how does the TGI read?
A: 6.27 µM

Q: For `O=c1ccc2ccccc2cc1[O-].O=c1ccc2ccccc2cc1[O-].[O]=[U+2]=[O]`, which GI50 is on record?
A: 19.5 µM

Q: What about the TGI of the same compound?
A: > 100 µM

Q: How did the TGI turn out when `COC(=O)C(CCCN1C(=O)c2ccccc2C1=O)C(=O)OC` was run?
A: > 100 µM

Q: How did the TGI turn out when `COc1nc(NC2OC(COC(C)=O)C(OC(C)=O)C(OC(C)=O)C2OC(C)=O)c2c(OC(C)=O)cc(=O)oc2n1` (stereo not given) was run?
A: > 100 µM

Q: For `CC(C)(C)c1cc2c(O)c3cccc4c(=O)c5cccc6c5-c(c34)c2c(c1)c6=O`, which TGI is on record?
A: > 100 µM

Q: How did the TGI turn out when `C=C(C)CCOC(c1ccccc1)(c1ccccc1)c1ccccc1` was run?
A: > 100 µM

Q: With `COc1ccc(C)cc1-c1cc(Sc2ccccc2)c(-c2cc(C)ccc2OC)o1` as the compound, how does the TGI read?
A: > 31.6 µM

Q: `CC(=O)O/N=C(/C)c1ccccc1O` was tested. Which TGI did it give?
A: > 100 µM

Q: How did the TGI turn out when `CC(=O)OCCOCNC(=S)N/N=C(\C)c1cnccn1` was run?
A: > 100 µM

Q: How did the TGI turn out when `O=C(Nc1ccccc1-c1nn(C(=S)Nc2ccccc2)c(=S)n(C(=S)Nc2ccccc2)c1=O)C(F)(F)F` was run?
A: > 100 µM

Q: How did the TGI turn out when `CN(C)CCn1c2c3ccccc3ccc2c2oc(=O)c3ccccc3c21` was run?
A: > 100 µM

System: HL-60(TB) leukemia
Assay: growth of human tumour cells (NCI), 48 h

Q: `S=c1sc2c(n1-c1ccccc1)NC=NC2S` (stereo not given) was tested. Which TGI did it give?
A: > 100 µM

Q: For `Cc1ccc(/C=C/C(=O)CCN(C)C)cc1`, which TGI is on record?
A: 47 µM

Q: With `N#C/C(=C\c1cccc(Cl)c1Cl)c1ccccc1` as the compound, how does the TGI read?
A: > 100 µM

Q: For `Cc1cccc(C)c1NC(=O)CCCC(=O)C1/C(=N/NC(=O)CC#N)CCC/C1=N\NC(=O)CC#N` (stereo not given), which TGI is on record?
A: > 100 µM

Q: `CN(C)CC1CC/C(=C\c2ccc(O)cc2)C1=O` (stereo not given) was tested. Which TGI did it give?
A: 2.91 µM

Q: Which results are given for `O=c1ccc2ccccc2cc1[O-].O=c1ccc2ccccc2cc1[O-].[O]=[U+2]=[O]`?
A: GI50: 14 µM; TGI: 52.3 µM

Q: For `COC(=O)C(CCCN1C(=O)c2ccccc2C1=O)C(=O)OC`, which TGI is on record?
A: > 100 µM

Q: Which TGI does the source give for `COc1nc(NC2OC(COC(C)=O)C(OC(C)=O)C(OC(C)=O)C2OC(C)=O)c2c(OC(C)=O)cc(=O)oc2n1` (stereo not given) here?
A: > 100 µM

Q: With `CC(C)(C)c1cc2c(O)c3cccc4c(=O)c5cccc6c5-c(c34)c2c(c1)c6=O` as the compound, how does the TGI read?
A: > 100 µM

Q: `C=C(C)CCOC(c1ccccc1)(c1ccccc1)c1ccccc1` was tested. Which TGI did it give?
A: > 100 µM

Q: For `COc1ccc(C)cc1-c1cc(Sc2ccccc2)c(-c2cc(C)ccc2OC)o1`, which TGI is on record?
A: > 31.6 µM

Q: With `CC(=O)O/N=C(/C)c1ccccc1O` as the compound, how does the TGI read?
A: > 100 µM

Q: With `CC(=O)OCCOCNC(=S)N/N=C(\C)c1cnccn1` as the compound, how does the TGI read?
A: 76.1 µM

Q: `O=C(Nc1ccccc1-c1nn(C(=S)Nc2ccccc2)c(=S)n(C(=S)Nc2ccccc2)c1=O)C(F)(F)F` was tested. Which TGI did it give?
A: 58.5 µM

Q: `CN(C)CCn1c2c3ccccc3ccc2c2oc(=O)c3ccccc3c21` was tested. Which TGI did it give?
A: > 100 µM

System: HOP-62 NSCLC
Assay: growth of human tumour cells (NCI), 48 h

Q: `S=c1sc2c(n1-c1ccccc1)NC=NC2S` (stereo not given) was tested. Which TGI did it give?
A: > 100 µM

Q: `Cc1ccc(/C=C/C(=O)CCN(C)C)cc1` was tested. Which TGI did it give?
A: > 100 µM

Q: For `N#C/C(=C\c1cccc(Cl)c1Cl)c1ccccc1`, which TGI is on record?
A: 60.9 µM

Q: How did the TGI turn out when `Cc1cccc(C)c1NC(=O)CCCC(=O)C1/C(=N/NC(=O)CC#N)CCC/C1=N\NC(=O)CC#N` (stereo not given) was run?
A: > 100 µM

Q: Which TGI does the source give for `CN(C)CC1CC/C(=C\c2ccc(O)cc2)C1=O` (stereo not given) here?
A: 33.6 µM

Q: Which results are given for `O=c1ccc2ccccc2cc1[O-].O=c1ccc2ccccc2cc1[O-].[O]=[U+2]=[O]`?
A: GI50: 23.9 µM; TGI: 53.8 µM

Q: With `COC(=O)C(CCCN1C(=O)c2ccccc2C1=O)C(=O)OC` as the compound, how does the TGI read?
A: > 100 µM

Q: With `COc1nc(NC2OC(COC(C)=O)C(OC(C)=O)C(OC(C)=O)C2OC(C)=O)c2c(OC(C)=O)cc(=O)oc2n1` (stereo not given) as the compound, how does the TGI read?
A: > 100 µM

Q: With `CC(C)(C)c1cc2c(O)c3cccc4c(=O)c5cccc6c5-c(c34)c2c(c1)c6=O` as the compound, how does the TGI read?
A: > 100 µM

Q: How did the TGI turn out when `C=C(C)CCOC(c1ccccc1)(c1ccccc1)c1ccccc1` was run?
A: > 100 µM

Q: Which TGI does the source give for `COc1ccc(C)cc1-c1cc(Sc2ccccc2)c(-c2cc(C)ccc2OC)o1` here?
A: > 31.6 µM

Q: `CC(=O)O/N=C(/C)c1ccccc1O` was tested. Which TGI did it give?
A: > 100 µM

Q: How did the TGI turn out when `CC(=O)OCCOCNC(=S)N/N=C(\C)c1cnccn1` was run?
A: > 100 µM

Q: How did the TGI turn out when `O=C(Nc1ccccc1-c1nn(C(=S)Nc2ccccc2)c(=S)n(C(=S)Nc2ccccc2)c1=O)C(F)(F)F` was run?
A: > 100 µM

Q: `CN(C)CCn1c2c3ccccc3ccc2c2oc(=O)c3ccccc3c21` was tested. Which TGI did it give?
A: 28.3 µM
